Source: ChEMBL document CHEMBL1146010, “Synthesis and in vitro antimycobacterial activity of N1-nicotinoyl-3-(4'-hydroxy-3'-methyl phenyl)-5-[(sub)phenyl]-2-pyrazolines” (2006)
In brackets after ≈: the same amount, converted by molar mass.

Key:
[1] = system: Mycobacterium tuberculosis; experiment: Antimycobacterial activity against Mycobacterium tuberculosis H37Rv by agar dilution method; assay type: functional
Vero = experiment: Cytotoxicity against Vero cell line upto 62.5 ug/ml after 72 hrs by MTT assay; assay type: functional, cell-based; settings: Chlorocebus sabaeus

| Compound | MIC [1] [µM] | Activity (Vero) |
| --- | --- | --- |
| COc1ccc(C2CC(c3ccc(O)c(C)c3)=NN2C(=O)c2ccncc2)cc1OC (stereo not given) | 1.87 (≈ 0.781 µg/mL) |  |
| Cc1cc(C2=NN(C(=O)c3ccncc3)C(c3c(Cl)cccc3Cl)C2)ccc1O (stereo not given) | 0.47 (≈ 0.2 µg/mL) | Not toxic |
| Cc1cc(C2=NN(C(=O)c3ccncc3)C(c3ccccc3)C2)ccc1O (stereo not given) | 8.73 (≈ 3.12 µg/mL) |  |
| NNC(=O)c1ccncc1 [ISONIAZID] | 0.73 (≈ 0.1 µg/mL) |  |
| COc1ccc(C2CC(c3ccc(O)c(C)c3)=NN2C(=O)c2ccncc2)c(OC)c1OC (stereo not given) | 3.93 (≈ 1.76 µg/mL) |  |
| Cc1cc(C2=NN(C(=O)c3ccncc3)C(c3ccc(F)cc3)C2)ccc1O (stereo not given) | 0.27 (≈ 0.101 µg/mL) | Not toxic |
| Cc1cc(C2=NN(C(=O)c3ccncc3)C(c3ccc(Cl)cc3)C2)ccc1O (stereo not given) | 1.99 (≈ 0.78 µg/mL) |  |
| COc1ccc(C2CC(c3ccc(O)c(C)c3)=NN2C(=O)c2ccncc2)cc1 (stereo not given) | 16.1 (≈ 6.25 µg/mL) |  |
| Cc1cc(C2=NN(C(=O)c3ccncc3)C(c3ccccc3Cl)C2)ccc1O (stereo not given) | 0.26 (≈ 0.102 µg/mL) | Not toxic |
| Cc1cc(C2=NN(C(=O)c3ccncc3)C(c3ccco3)C2)ccc1O (stereo not given) | 0.58 (≈ 0.201 µg/mL) |  |
| Cc1cc(C2=NN(C(=O)c3ccncc3)C(c3ccc(N(C)C)cc3)C2)ccc1O (stereo not given) | 1.95 (≈ 0.781 µg/mL) |  |
| Cc1cc(C2=NN(C(=O)c3ccncc3)C(c3cccc([N+](=O)[O-])c3)C2)ccc1O (stereo not given) | 15.5 (≈ 6.25 µg/mL) |  |
